{"source": "patent EP2057185B1", "about": "“POLYMYXIN DERIVATIVES AND USES THEREOF” (Northern Antibiotics Oy, priority 2006, dated 2008)", "key": {"[1]": {"tested_on": "P. mirabilis ATCC29906", "assay": "MIC by E-strips on Mueller-Hinton agar with or without NAB7061 (4 µg/ml)", "format": "cell-based, Proteus mirabilis", "description": "(§1) MICs were determined by using E-strips (Biodisk Ltd., Solna, Sweden) according to the manufacturer's instructions.\n(§2) The strains originated from ATCC (11 strains), CCUG (11 strains), and NCTC (The National Collection of Type Cultures, Colindale, U.K.; 2 strains). Eight strains (the F-strains) were purchased from Mobidiag Ltd., Helsinki, Finland."}, "[2]": {"tested_on": "P. aeruginosa ATCC27853", "assay": "MIC by E-strips on Mueller-Hinton agar with or without NAB7061 (4 µg/ml)", "format": "cell-based, Pseudomonas aeruginosa", "description": "as §1, §2"}, "[3]": {"tested_on": "P. aeruginosa CCUG51971", "assay": "MIC by E-strips on Mueller-Hinton agar with or without NAB7061 (4 µg/ml)", "format": "cell-based, Pseudomonas aeruginosa", "description": "as §1, §2"}, "[4]": {"tested_on": "P. aeruginosa F58", "assay": "MIC by E-strips on Mueller-Hinton agar with or without NAB7061 (4 µg/ml)", "format": "cell-based, Pseudomonas aeruginosa", "description": "as §1, §2"}, "[5]": {"tested_on": "all strains (17) belonging to the group consisting of E. coli, K. oxytoca, E. cloacae, and C. freundii", "assay": "E-strip MIC, summary over 17 strains of Example 8", "format": "cell-based", "description": "as §1, §2"}, "[6]": {"tested_on": "carbapenem-resistant strains (F263, F264)", "assay": "E-strip MIC of carbapenems, summary over resistant strains", "format": "cell-based, Acinetobacter baumannii", "conditions": "NAB7061 4 µg/ml", "description": "as §1"}, "[7]": {"molecular_target": "brush-border membrane (BBM) of the renal cortex", "assay": "Inhibition of binding of radiolabelled gentamycin to brush-border membrane", "parameters": "species or system male albino rats", "conditions": "BBM vesicles, 20 µM [^3H] gentamycin, 60 min at 4°C, pH 7.5", "from_the_text": "The binding of the compounds according to this invention to isolated brush-border membrane (BBM) from the renal cortex can be measured indirectly by measuring their ability to inhibit the binding of radiolabelled gentamycin to BBM. Accordingly, the compounds according to this invention that have less affinity to BBM than for example polymyxin B inhibit the binding of radio-labelled gentamycin to a lesser degree than does polymyxin B.\nBBM was isolated from the renal cortex of male albino rats by using the Mg^2+/EGTA precipitation technique as described by Nagai et al. (2006). The binding of gentamycin was measured, according to the method described by Nagai et al. (2006) by incubating BBM vesicles (20µl) in 10 mM HEPES (pH 7.5) with 300 mM mannitol in the presence of 20 µM [^3H] gentamycin (American Radiolabeled Chemicals, Inc. (St. Louis, MO, U.S.A.)) with or without the compound to be tested or a positive control. After an incubation of 60 min at 4°C, 1 ml of ice-cold buffer described above was added, and the mixture was filtered through a Millipore filter (0.45 µm; HAWP). The filter was washed with the buffer and the radioactivity remaining in the filter was measured by using a liquid scintillation counter. The IC50 values were determined as in Nagai et al. (2006) using the Hill equation."}, "[8]": {"tested_on": "E. coli IH3080 (K1:O18)", "assay": "Experimental E. coli peritonitis model in mice", "format": "in vivo", "conditions": "peritoneal fluid; 5 mg/kg body weight subcutaneous at 1 h; […] after the treatment", "description": "A suspension of E. coli IH3080 (K1:O18) in saline (0.9% NaCl) was prepared from an overnight culture on a blood agar plate (Statens Serum Institut, Copenhagen, Denmark). All mice (female NMR1 from Harlan Scandinavia, Aller⌀d, Denmark; weight, 25-30 g) were inoculated intraperitoneally with 0.5 ml of the suspension containing 0.96 x 10^6 CFU per ml in the lateral lower quadrant of the abdomen. At 1 h, the CFU count was determined from three mice and the remaining mice (four mice per group) were treated with a subcutaneous injection of 0.2 ml of erythromycin solution in saline (corresponding to 5 mg/kg body weight) or NAB7061 solution in saline (corresponding to 5 mg/kg body weight), or both erythromycin and NAB7061 (corresponding to 5 mg/kg body weight of both drugs; given at two separate sites). Control group received two 0.2 ml injections of saline. At 4.5 h postinfection, all mice were anaesthetized with CO2 and sacrificed. Sterile saline (2 ml) was injected intraperitoneally and the abdomen was gently massaged before it was opened and the fluid sampled. Appropriate dilutions of the fluid were plated on blood agar plates, the plates were incubated overnight, and the colonies were counted."}, "[9]": {"tested_on": "K. pneumoniae ATCC13883", "assay": "Growth inhibition around wells on LB agar plates", "format": "cell-based, Klebsiella pneumoniae", "conditions": "growth inhibition area around well", "description": "(§3) From an overnight-grown culture of IH3080 on LB agar, a suspension of approx. 10^8 cells/ml was prepared in 0.9% NaCl. Aliquots of this suspension were then pipetted on the agar plates and the plates were gently shaken to spread the suspension evenly on the entire surface of the plate. Thereafter, the unabsorbed part of the suspension was removed by using a Pasteur pipette. After the surface had dried, small wells (diameter, 2 mm) were drilled on the plates (five wells per plate) by using a sterile sharp-edged narrow metal tube, single-use pipette tip, and vacuum suction. Samples (4 µl and 10 µl) of the peptide solution in 0.9% NaCl (at concentrations of 1 µg/ml and 0.1 µg/ml) were then pipetted to the wells and the sample fluids were allowed to absorb. Controls included 0.9% NaCl solution without the compound to be tested. The plates were then incubated for 18 h at 37°C whereafter the diameters of growth inhibition zones around each well were measured; the diameter of the well itself was […]. Finally, the diameters were converted to surface areas of growth inhibition (in square mm).\nThe susceptibility of eleven Gram-negative bacterial strains (nine different species) to NAB734 and polymyxin B was compared by using the susceptibility determination method described in Example 2. The strains included those belonging to the species of Serratia marcescens and Proteus mirabilis, both species generally known to be resistant to polymyxin. Furthermore, the susceptibility determination was also performed by using the Gram-positive bacterium, Staphylococcus aureus, also generally known to be polymyxin-resistant. Ten of the strains originated from ATCC (American Type Culture Collection, Manassas, VA, U.S.A.), and one from CCUG (Culture Collection of University of Gothenburg, Sweden). The source of E. coli IH3080 has been described in Example 2. Polymyxin B sulfate was from Sigma-Aldrich (St. Louis, MO, USA)."}, "[10]": {"tested_on": "C. freundii ATCC8090", "assay": "Growth inhibition around wells on LB agar plates", "format": "cell-based, Citrobacter freundii", "conditions": "growth inhibition area around well", "description": "as §3\n(§4) The susceptibility of eleven Gram-negative bacterial strains (nine different species) to NAB734 and polymyxin B was compared by using the susceptibility determination method described in Example 2. […]"}, "[11]": {"tested_on": "P. mirabilis ATCC29906", "assay": "Growth inhibition around wells on LB agar plates", "format": "cell-based, Proteus mirabilis", "conditions": "growth inhibition area around well", "description": "as §3, §4"}, "[12]": {"tested_on": "S. aureus ATCC 25923", "assay": "Growth inhibition around wells on LB agar plates", "format": "cell-based, Staphylococcus aureus", "conditions": "growth inhibition area around well", "description": "as §3, §4"}}, "note": "Bridge positions count the residues as written; N and C are the ends. Square brackets hold non-standard residues; d marks the D form. Peptide text beside a SMILES is read from it. * marks the point of attachment. Octanoyl = CCCCCCCC(=O)*; Dab = NCC[C@H](N)C(=O)O; Abu = CC[C@H](N)C(=O)O"}
{"molecule": "CCCCCCCC(=O)N[C@H](C(=O)N[C@@H](CC)C(=O)N[C@H]1CCNC(=O)[C@H]([C@@H](C)O)NC(=O)[C@H](CCN)NC(=O)[C@H](CCN)NC(=O)[C@H](CC(C)C)NC(=O)[C@@H](Cc2ccccc2)NC(=O)[C@H](CCN)NC1=O)[C@@H](C)O", "note": "[NAB 7061, OA-Thr-Abu-cy[Dab-Dab-DPhe-Leu-Dab-Dab-Thr-]] (Octanoyl-T[Abu][Dab][Dab][dF]L[Dab][Dab]T; lactam 3-C)", "values": [{"measurement": "MIC (µg/ml) of clarithromycin in the presence of 4 µg/ml of NAB 7061", "setting": "[1]", "value": "[…]"}, {"measurement": "MIC (µg/ml) of rifampin in the presence of 4 µg/ml of NAB 7061", "setting": "[1]", "value": "1 to 6", "unit": "µg/mL"}, {"measurement": "Sensitization factor to clarithromycin", "setting": "[1]; 4 µg/ml of NAB 7061", "value": "<2"}, {"measurement": "Sensitization factor to rifampin", "setting": "[1]; 4 µg/ml of NAB 7061", "value": "<2"}, {"measurement": "MIC (µg/ml) of clarithromycin in the presence of 4 µg/ml of NAB 7061", "setting": "[2]", "value": "[…]"}, {"measurement": "MIC (µg/ml) of rifampin in the presence of 4 µg/ml of NAB 7061", "setting": "[2]", "value": "[…]"}, {"measurement": "Sensitization factor to clarithromycin", "setting": "[2]; 4 µg/ml of NAB 7061", "value": "[…]"}, {"measurement": "Sensitization factor to rifampin", "setting": "[2]; 4 µg/ml of NAB 7061", "value": "[…]"}, {"measurement": "MIC (µg/ml) of clarithromycin in the presence of 4 µg/ml of NAB 7061", "setting": "[3]", "value": "[…]"}, {"measurement": "MIC (µg/ml) of rifampin in the presence of 4 µg/ml of NAB 7061", "setting": "[3]", "value": ">32", "unit": "µg/mL"}, {"measurement": "Sensitization factor to clarithromycin", "setting": "[3]; 4 µg/ml of NAB 7061", "value": "<2"}, {"measurement": "Sensitization factor to rifampin", "setting": "[3]; 4 µg/ml of NAB 7061", "value": "<2"}, {"measurement": "MIC (µg/ml) of clarithromycin in the presence of 4 µg/ml of NAB 7061", "setting": "[4]", "value": "[…]"}, {"measurement": "MIC (µg/ml) of rifampin in the presence of 4 µg/ml of NAB 7061", "setting": "[4]", "value": ">32", "unit": "µg/mL"}, {"measurement": "Sensitization factor to clarithromycin", "setting": "[4]; 4 µg/ml of NAB 7061", "value": "<2"}, {"measurement": "Sensitization factor to rifampin", "setting": "[4]; 4 µg/ml of NAB 7061", "value": "<2"}, {"measurement": "MIC of rifampin in the presence of NAB7061 (4 µg/ml)", "setting": "[5]", "value": "≤ 0.125", "unit": "µg/mL"}, {"measurement": "sensitization factor to both carbapenems (imipenem, meropenem)", "setting": "[6]", "value": "≥ 4"}, {"measurement": "IC50", "setting": "[7]", "value": 187, "unit": "µM"}, {"measurement": "CFU counts (per ml) at 4.5 h postinfection", "setting": "[8]", "value": "1.1 (± 0.6) x 10^6 per ml"}]}
{"molecule": "Polymyxin B", "values": [{"measurement": "Antibacterial activity 4 µg", "setting": "[9]; 4 µg", "value": 79, "unit": "square millimeters"}, {"measurement": "Antibacterial activity 10 µg", "setting": "[9]; 10 µg", "value": 113, "unit": "square millimeters"}, {"measurement": "Antibacterial activity 4 µg", "setting": "[10]; 4 µg", "value": 95, "unit": "square millimeters"}, {"measurement": "Antibacterial activity 10 µg", "setting": "[10]; 10 µg", "value": 154, "unit": "square millimeters"}, {"measurement": "Antibacterial activity 4 µg", "setting": "[11]; 4 µg", "value": 0, "unit": "square millimeters"}, {"measurement": "Antibacterial activity 10 µg", "setting": "[11]; 10 µg", "value": 0, "unit": "square millimeters"}, {"measurement": "Antibacterial activity 4 µg", "setting": "[12]; 4 µg", "value": 0, "unit": "square millimeters"}, {"measurement": "Antibacterial activity 10 µg", "setting": "[12]; 10 µg", "value": 0, "unit": "square millimeters"}]}
